Values of other authors as cited in patent publication US10702472B2, “Production method of edible sustained-release functional material and edible sustained-release functional material” (AOBAKASEI KABUSHIKI KAISHA, priority 2017, dated 2020).

Settings: generally known value

collapse temperature: −40 °C
Structure (SMILES): O=C[C@H](O)[C@@H](O)[C@H](O)[C@H](O)CO [glucose]
